From patent publication US20090137664A1, “SAURURUS CERNUUS COMPOUNDS THAT INHIBIT CELLULAR RESPONSES TO HYPOXIA” (priority 2003, published 2009)

What was measured:
Type in all cases: cell-based
OVCAR-8 = experiment: NCI in vitro cell line screen (SRB), Ovarian Cancer OVCAR-8; conditions: Log10 Concentration −8.0 Molar
Description: (§1) For exemplary purposes, an embodiment of the present invention was tested for activity with respect to certain cancer cell lines. The following Tables show results from in vitro 60-cell line antitumor testing from the US National Cancer Institute Developmental Therapeutics Program (NCI-DTP) on compound 2. The testing was in connection with the NCI's In Vitro Cell Line Screening Project (IVCLSP). Detailed information regarding the experiments and their interpretation is available from the NCI.

OVCAR-3 = experiment: NCI in vitro cell line screen (SRB), Ovarian Cancer OVCAR-3
Description: as §1

BT-549 = experiment: NCI in vitro cell line screen (SRB), Breast Cancer BT-549
Description: as §1

UACC-257 = experiment: NCI in vitro cell line screen (SRB), Melanoma UACC-257
Description: as §1

NCI-H522 = experiment: NCI in vitro cell line screen (SRB), Non-Small Cell Lung Cancer NCI-H522
Description: as §1

M14 = experiment: NCI in vitro cell line screen (SRB), Melanoma M14
Description: as §1

[1] = Homo sapiens, read-out: LC50 (the source's name)

COc1ccc([C@@H](O)[C@@H](C)Oc2ccc([C@H]3O[C@H](c4ccc(O[C@H](C)[C@H](O)c5ccc6c(c5)OCO6)c(OC)c4)[C@H](C)[C@H]3C)cc2OC)cc1OC [Compound 2, manassantin B]
Percent Growth (OVCAR-8): 83% | TGI (OVCAR-3): 4.32E−6 Molar | GI50 (OVCAR-3; Homo sapiens): 0.627 µM | CC50 (OVCAR-3; [1]): > 100 µM | Mean Optical Densities (OVCAR-3; Log10 Concentration −4.0 Molar): 0.367 | Percent Growth (OVCAR-3; Log10 Concentration −4.0 Molar): −36% | Mean Optical Densities (OVCAR-3; Log10 Concentration −5.0 Molar): 0.465 | Percent Growth (OVCAR-3; Log10 Concentration −5.0 Molar): −19% | Mean Optical Densities (OVCAR-3; Log10 Concentration −6.0 Molar): 0.616 | Percent Growth (OVCAR-3; Log10 Concentration −6.0 Molar): 33% | Mean Optical Densities (OVCAR-3; Log10 Concentration −7.0 Molar): 0.722 | Percent Growth (OVCAR-3; Log10 Concentration −7.0 Molar): 117% | Mean Optical Densities (OVCAR-3; Log10 Concentration −8.0 Molar): 0.679 | Percent Growth (OVCAR-3; Log10 Concentration −8.0 Molar): 83% | TGI (BT-549): 1.32E−5 Molar | GI50 (BT-549; Homo sapiens): 1.07 µM | CC50 (BT-549; [1]): > 100 µM | Mean Optical Densities (BT-549; Log10 Concentration −4.0 Molar): 0.474 | Percent Growth (BT-549; Log10 Concentration −4.0 Molar): −22% | Mean Optical Densities (BT-549; Log10 Concentration −5.0 Molar): 0.620 | Percent Growth (BT-549; Log10 Concentration −5.0 Molar): 3% | Mean Optical Densities (BT-549; Log10 Concentration −6.0 Molar): 0.813 | Percent Growth (BT-549; Log10 Concentration −6.0 Molar): 51% | Mean Optical Densities (BT-549; Log10 Concentration −7.0 Molar): 0.868 | Percent Growth (BT-549; Log10 Concentration −7.0 Molar): 65% | Mean Optical Densities (BT-549; Log10 Concentration −8.0 Molar): 0.838 | Percent Growth (BT-549; Log10 Concentration −8.0 Molar): 58% | TGI (UACC-257): >1.00E−4 Molar | GI50 (UACC-257; Homo sapiens): 1.09 µM | CC50 (UACC-257; [1]): > 100 µM | Mean Optical Densities (UACC-257; Log10 Concentration −4.0 Molar): 1.165 | Percent Growth (UACC-257; Log10 Concentration −4.0 Molar): 12% | Mean Optical Densities (UACC-257; Log10 Concentration −5.0 Molar): 1.270 | Percent Growth (UACC-257; Log10 Concentration −5.0 Molar): 23% | Mean Optical Densities (UACC-257; Log10 Concentration −6.0 Molar): 1.558 | Percent Growth (UACC-257; Log10 Concentration −6.0 Molar): 51% | Mean Optical Densities (UACC-257; Log10 Concentration −7.0 Molar): 1.565 | Percent Growth (UACC-257; Log10 Concentration −7.0 Molar): 52% | Mean Optical Densities (UACC-257; Log10 Concentration −8.0 Molar): 1.673 | Percent Growth (UACC-257; Log10 Concentration −8.0 Molar): 62% | TGI (NCI-H522): >1.00E−4 Molar | GI50 (NCI-H522; Homo sapiens): 3.38 µM | CC50 (NCI-H522; [1]): > 100 µM | Mean Optical Densities (NCI-H522; Log10 Concentration −4.0 Molar): 0.760 | Percent Growth (NCI-H522; Log10 Concentration −4.0 Molar): 9% | Mean Optical Densities (NCI-H522; Log10 Concentration −5.0 Molar): 0.919 | Percent Growth (NCI-H522; Log10 Concentration −5.0 Molar): 35% | Mean Optical Densities (NCI-H522; Log10 Concentration −6.0 Molar): 1.119 | Percent Growth (NCI-H522; Log10 Concentration −6.0 Molar): 67% | Mean Optical Densities (NCI-H522; Log10 Concentration −7.0 Molar): 1.099 | Percent Growth (NCI-H522; Log10 Concentration −7.0 Molar): 64% | Mean Optical Densities (NCI-H522; Log10 Concentration −8.0 Molar): 1.087 | Percent Growth (NCI-H522; Log10 Concentration −8.0 Molar): 62% | TGI (M14): >1.00E−4 Molar | GI50 (M14; Homo sapiens): 4.19 µM | CC50 (M14; [1]): > 100 µM | Mean Optical Densities (M14; Log10 Concentration −4.0 Molar): 0.439 | Percent Growth (M14; Log10 Concentration −4.0 Molar): 12% | Mean Optical Densities (M14; Log10 Concentration −5.0 Molar): 0.521 | Percent Growth (M14; Log10 Concentration −5.0 Molar): 30% | Mean Optical Densities (M14; Log10 Concentration −6.0 Molar): 0.764 | Percent Growth (M14; Log10 Concentration −6.0 Molar): 83% | Mean Optical Densities (M14; Log10 Concentration −7.0 Molar): 0.843 | Percent Growth (M14; Log10 Concentration −7.0 Molar): 100% | Mean Optical Densities (M14; Log10 Concentration −8.0 Molar): 0.809 | Percent Growth (M14; Log10 Concentration −8.0 Molar): 93%
